In brackets after ≈: the same amount, converted by molar mass. Like-named read-outs stand apart in the source and are kept apart here.
How the values were obtained:
Mycoplasma pulmonis M-53 = test: MIC against Mycoplasma (Table 3); conditions: M53, 120 h
[1] = Conversion in aqueous solution; assay type: physicochemical; conditions: room temperature
From the text: For example, in case that the mixture of TAN-1057A and B is isolated as crystals of the sulfate, the ratio of TAN-1057A and B is about 6 to 8:4 to 2.
The term "Antibiotics TAN-1057" in the present specification includes also a mixture which contains TAN-1057A, B, C and D in an optional combination and an optional ratio thereof.

[2] = tested on: Pseudomonas aeruginosa IFO 3080; assay type: cell-based; conditions: IFO3080, agar dilution, DY medium, pH unadjusted, approx. 10^6 CFU/ml, read-out: Minimum Inhibitory Conc. (MIC)
Method: (Note 1) Measurement was conducted by employing a medium consisting of DY
medium [Bacto Antibiotic Medium 3 (Difco Laboratories, USA)(17.5 g), Bact
yeast extract(Difco Laboratories, USA)(5.0 g) and distilled water(pH
unadjusted)(1000 ml)], using approximately 10^6 colony forming unit/m
of inoculum, by means of the agar dilution method.

[3] = tested on: Bacteroides thermophilis PNA-1-24; test: MIC against anaerobic bacteria (Table 3); assay type: cell-based; conditions: PNA124, 10^6 CFU/ml, GAM medium, Gas Pack, 37° C., 18 hours
[4] = Acute toxicity in mice (Table 7); conditions: mouse, in vivo
Bacillus cereus FDA 5 = test: Antibacterial activity (broth dilution MIC, Table 1); assay type: cell-based
Method: (§1) The biological activities of TAN-1057 are described as follows.
(§2) (Note 1) Measurement was conducted by employing a medium consisting of
(§3) Bacto Antibiotic Medium 3 (Difco Laboratories, USA)(17.5 g), Bacto yeast
(§4) extract(Difco Laboratories, USA)(5.0 g) and distilled water(pH
(§5) […])(1000 ml), using approximately 10^5 colony forming unit/ml
(§6) of inoculum, by means of the broth dilution method.

[5] = tested on: Pseudomonas aeruginosa PAO-8; test: as above; assay type: cell-based
Method: as §1, §2, §3, §4, §5, §6

[6] = tested on: Salmonella typhimurium IFO 12529; test: as above; assay type: cell-based; conditions: Salmonella enterica
Method: as §1, §2, §3, §4, §5, §6

[7] = tested on: Staphylococcus aureus FDA 209P; test: as above; assay type: cell-based; conditions: FDA209P
Method: as §1, §2, §3, §4, §5, §6

[8] = tested on: Bacillus subtilis NIHJ PCI 219; test: as above; assay type: cell-based
Method: as §1, §2, §3, §4, §5, §6

Escherichia coli LD-2 = test: as above; assay type: cell-based
Method: as §1, §2, §3, §4, §5, §6

[9] = tested on: Acinetobacter calcoaceticus IFO 13006; test: as above; assay type: cell-based
Method: as §1, §2, §3, §4, §5, §6

[10] = tested on: Klebsiella pnemoniae IFO 3317; test: as above; assay type: cell-based
Method: as §1, §2, §3, §4, §5, §6

[11] = tested on: Micrococcus luteus IFO 12708; test: as above; assay type: cell-based
Method: as §1, §2, §3, §4, §5, §6

[12] = tested on: Staphylococcus epidermidis IFO 3762; test: as above; assay type: cell-based
Method: as §1, §2, §3, §4, §5, §6

[13] = tested on: Bacillus megaterium IFO 12108; test: as above; assay type: cell-based; conditions: Priestia megaterium
Method: as §1, §2, §3, §4, §5, §6

[14] = tested on: Streptococcus faecalis IFO 3989; test: as above; assay type: cell-based; conditions: Enterococcus faecalis
Method: as §1, §2, §3, §4, §5, §6

[15] = tested on: Escherichia coli NIHJ JC 2; test: as above; assay type: cell-based
Method: as §1, §2, §3, §4, §5, §6

[16] = tested on: Acinetobacter calcoaceticus IFO 12552; test: as above; assay type: cell-based
Method: as §1, §2, §3, §4, §5, §6

Aeromonas caviae NCW = test: as above; assay type: cell-based
Method: as §1, §2, §3, §4, §5, §6

[17] = tested on: Proteus vulgaris IFO 3988; test: as above; assay type: cell-based
Method: as §1, §2, §3, §4, §5, §6

[18] = tested on: Pseudomonas aeruginosa IFO 3080; test: as above; assay type: cell-based
Method: as §1, §2, §3, §4, §5, §6

[19] = tested on: Bacteroides fladilis ATCC 2509; test: MIC against anaerobic bacteria (Table 3); assay type: cell-based; conditions: ATCC2509, 10^6 CFU/ml, GAM medium, Gas Pack, 37° C., 18 hours
[20] = tested on: Staphylococcus aureus 308A-1; test: Therapeutic effect on infectious disease in mice (Table 5); assay type: in vivo
[21] = pH 7, read-out: Minimum Inhibitory Conc. (MIC)
[22] = pH 9, broth dilution, read-out: Minimum Inhibitory Conc. (MIC)
[23] = pH 5, broth dilution, read-out: Minimum Inhibitory Conc. (MIC)

## CN(C(=O)C[C@@H](N)CCCNC(=N)N)[C@H]1CNC(NC(N)=O)=NC1=O [TAN-1057A]
Mycoplasma pulmonis M-53
  MIC: 0.39 µg/mL (≈ 1.1 µM)
[1]
  conversion of TAN-1057A and B into each other: converted easily each other
[2]
  MIC: > 100 µg/mL
[3]
  MIC: 0.78 µg/mL (≈ 2.19 µM)
[4]; Oral
  LD50: > 400 mg/kg
[4]; ip, Intraperitoneal
  LD50: ~100 mg/kg
Bacillus cereus FDA 5; FDA5, pH 5, read-out: Minimum Inhibitory Conc. (MIC)
  MIC: 6.25 µg/mL (≈ 17.6 µM)
Bacillus cereus FDA 5; FDA5, pH 7, broth dilution, read-out: Minimum Inhibitory Conc. (MIC)
  MIC: 25 µg/mL (≈ 70.3 µM)
Bacillus cereus FDA 5; FDA5, pH 9, read-out: Minimum Inhibitory Conc. (MIC)
  MIC: 3.13 µg/mL (≈ 8.81 µM)
[5]; PAO8, pH 5, read-out: Minimum Inhibitory Conc. (MIC)
  MIC: 100 µg/mL (≈ 281 µM)
[5]; PAO8, pH 7, read-out: Minimum Inhibitory Conc. (MIC)
  MIC: > 100 µg/mL
[5]; PAO8, pH 9, read-out: Minimum Inhibitory Conc. (MIC)
  MIC: 100 µg/mL (≈ 281 µM)
[6]; pH 5, read-out: Minimum Inhibitory Conc. (MIC)
  MIC: > 100 µg/mL
[6]; [21]
  MIC: > 100 µg/mL
[6]; pH 9, read-out: Minimum Inhibitory Conc. (MIC)
  MIC: 25 µg/mL (≈ 70.3 µM)
[7]; [21]
  MIC: 3.13 µg/mL (≈ 8.81 µM)
[7]; [22]
  MIC: < 0.1 µg/mL
[8]; [23]
  MIC: 50 µg/mL (≈ 141 µM)
[8]; [21]
  MIC: 12.5 µg/mL (≈ 35.2 µM)
[8]; [22]
  MIC: 1.56 µg/mL (≈ 4.39 µM)
Escherichia coli LD-2; LD2, pH 5, read-out: Minimum Inhibitory Conc. (MIC)
  MIC: 100 µg/mL (≈ 281 µM)
Escherichia coli LD-2; LD2, pH 7, read-out: Minimum Inhibitory Conc. (MIC)
  MIC: 25 µg/mL (≈ 70.3 µM)
Escherichia coli LD-2; LD2, pH 9, read-out: Minimum Inhibitory Conc. (MIC)
  MIC: 1.56 µg/mL (≈ 4.39 µM)
[9]; IFO13006, pH 5, broth dilution, read-out: Minimum Inhibitory Conc. (MIC)
  MIC: 1.56 µg/mL (≈ 4.39 µM)
[9]; IFO13006, pH 7, read-out: Minimum Inhibitory Conc. (MIC)
  MIC: 6.25 µg/mL (≈ 17.6 µM)
[9]; IFO13006, pH 9, broth dilution, read-out: Minimum Inhibitory Conc. (MIC)
  MIC: 1.56 µg/mL (≈ 4.39 µM)
[10]; IFO3317, pH 5, read-out: Minimum Inhibitory Conc. (MIC)
  MIC: > 100 µg/mL
[10]; IFO3317, pH 7, read-out: Minimum Inhibitory Conc. (MIC)
  MIC: > 100 µg/mL
[10]; IFO3317, pH 9, read-out: Minimum Inhibitory Conc. (MIC)
  MIC: 100 µg/mL (≈ 281 µM)
[11]; IFO12708, pH 7, read-out: Minimum Inhibitory Conc. (MIC)
  MIC: 1.56 µg/mL (≈ 4.39 µM)
[11]; IFO12708, pH 9, read-out: Minimum Inhibitory Conc. (MIC)
  MIC: 0.2 µg/mL (≈ 0.563 µM)
[12]; IFO3762, pH 5, read-out: Minimum Inhibitory Conc. (MIC)
  MIC: > 100 µg/mL
[12]; IFO3762, pH 7, read-out: Minimum Inhibitory Conc. (MIC)
  MIC: 1.56 µg/mL (≈ 4.39 µM)
[12]; IFO3762, pH 9, read-out: Minimum Inhibitory Conc. (MIC)
  MIC: < 0.1 µg/mL
[13]; IFO12108, pH 7, read-out: Minimum Inhibitory Conc. (MIC)
  MIC: 12.5 µg/mL (≈ 35.2 µM)
[13]; IFO12108, pH 5, broth dilution, read-out: Minimum Inhibitory Conc. (MIC)
  MIC: 25 µg/mL (≈ 70.3 µM)
[13]; IFO12108, pH 9, broth dilution, read-out: Minimum Inhibitory Conc. (MIC)
  MIC: 1.56 µg/mL (≈ 4.39 µM)
[14]; IFO3989, pH 7, read-out: Minimum Inhibitory Conc. (MIC)
  MIC: 12.5 µg/mL (≈ 35.2 µM)
[14]; IFO3989, pH 9, read-out: Minimum Inhibitory Conc. (MIC)
  MIC: 3.13 µg/mL (≈ 8.81 µM)
[14]; IFO3989, pH 5, broth dilution, read-out: Minimum Inhibitory Conc. (MIC)
  MIC: > 100 µg/mL
[15]; NIHJJC2, pH 5, read-out: Minimum Inhibitory Conc. (MIC)
  MIC: > 100 µg/mL
[15]; NIHJJC2, pH 7, read-out: Minimum Inhibitory Conc. (MIC)
  MIC: > 100 µg/mL
[15]; NIHJJC2, pH 9, read-out: Minimum Inhibitory Conc. (MIC)
  MIC: 25 µg/mL (≈ 70.3 µM)
[16]; IFO12552, pH 5, read-out: Minimum Inhibitory Conc. (MIC)
  MIC: 12.5 µg/mL (≈ 35.2 µM)
[16]; IFO12552, pH 7, read-out: Minimum Inhibitory Conc. (MIC)
  MIC: 6.25 µg/mL (≈ 17.6 µM)
[16]; IFO12552, pH 9, broth dilution, read-out: Minimum Inhibitory Conc. (MIC)
  MIC: 1.56 µg/mL (≈ 4.39 µM)
Aeromonas caviae NCW; [23]
  MIC: 100 µg/mL (≈ 281 µM)
Aeromonas caviae NCW; [21]
  MIC: 6.25 µg/mL (≈ 17.6 µM)
Aeromonas caviae NCW; [22]
  MIC: 1.56 µg/mL (≈ 4.39 µM)
[17]; IFO3988, pH 5, read-out: Minimum Inhibitory Conc. (MIC)
  MIC: > 100 µg/mL
[17]; IFO3988, pH 7, read-out: Minimum Inhibitory Conc. (MIC)
  MIC: > 100 µg/mL
[17]; IFO3988, pH 9, read-out: Minimum Inhibitory Conc. (MIC)
  MIC: 50 µg/mL (≈ 141 µM)
[18]; IFO3080, pH 5, read-out: Minimum Inhibitory Conc. (MIC)
  MIC: > 100 µg/mL
[18]; IFO3080, pH 7, read-out: Minimum Inhibitory Conc. (MIC)
  MIC: > 100 µg/mL
[18]; IFO3080, pH 9, read-out: Minimum Inhibitory Conc. (MIC)
  MIC: 100 µg/mL (≈ 281 µM)
[19]
  MIC: 50 µg/mL (≈ 141 µM)
[20]; 308A1, ip infection, Oral
  ED50: ~1 mg/kg
[20]; 308A1, sc, ip infection, Subcutaneous
  ED50: ~0.1 mg/kg

— patent publication US4971965A, “Antibiotics TAN-1057” (Takeda Chemical Industries, Ltd., priority 1988, dated 1990)
